What was measured:
[1] = target: T1, recombinant human p38α MAP kinase (Homo sapiens, UniProt Q16539); experiment: Study on p38α MAP kinase inhibitory activity (ATF2 phosphorylation, Alpha Screen); type: biochemical; conditions: biotinylated ATF2 substrate, 30° C. for 30 minutes
T1 construct: purchased Upstate Biotechnology #14-251
Procedure: Study on p38α MAP Kinase Inhibitory Activity
Using activating transcription factor-2 (hereinafter abbreviated to ATF2) which is a substrate for p38α MAP kinase, the inhibitory action of the compounds of the present invention was investigated on the phosphorylation by a recombinant human p38α MAP kinase.
A kinase buffer (25 mM Tris-HCl (pH 7.5), 5 mM β-glycerophosphate, 2 mM dithiothreitol, 0.1 mM Na3VO4, 10 mM MgCl2) containing a recombinant human p38α MAP kinase (Upstate Biotechnology #14-251) was added to a 384-well plate (5 μL) (6.25 ng protein/well) for fluorescence measurement. After addition of a kinase buffer (5 μL) containing the compound of the present invention, the resulting mixture was incubated at room temperature for 20 minutes. A substrate mixture (5 μL) of biotinylated ATF2 of 5 μg/mL (Upstate Biotechnology #14-432), adenosine triphosphate (90 μmol/L) (Sigma #FL-AAS) and anti-phosphorylated ATF2 antibody (20-fold dilution) (Cell Signaling Technology #9221L) prepared separately was added thereto, and enzyme reaction was carried out at 30° C. for 30 minutes. After the reaction, Hepes buffer (5 μL) containing 0.25% BSA and 100 mM EDTA was added to stop the enzyme reaction. The amount of a complex of the phosphorylated ATF2 and anti-phosphorylated ATF2 antibody produced by the reaction was measured using an Alpha Screen™ Rabbit Detection kit (Packard #6760607).
The p38α MAP kinase inhibitory activity, which is the effect of the compound of the present invention, was calculated as an inhibition rate (%) according to the following equation: Inhibition rate (%)={(AC−AX)/(AC−AB)}×100
wherein AB is a measured value without addition of the enzyme;
AC is a measured value with addition of the enzyme in the absence of a test compound; and
AX is a measured value with addition of the enzyme in the presence of a test compound.
Inhibition rate of compounds with each concentration was calculated, and a value indicating 50% inhibition (IC50) was determined from the inhibition curve.

[2] = Evaluation of artificial lipid membrane binding using a Biacore S51 system; conditions: for Binding Level (RU): compound 50 μM, DOPA liposomes on Sensor Chip L1, 37° C., PBS/5% DMSO (pH 7.4 or pH 6.0); for Judgment: phospholipidosis inducing activity judged from artificial lipid membrane binding
Procedure: Evaluation of Artificial Lipid Membrane Binding using a Biacore S51 (Registered Trademark) System
Using an aspirator, 10 mM of 1,2-dioleoyl-sn-glycero-3-phosphate monosodium salt (hereinafter abbreviated to DOPA) chloroform solution was evaporated to be dryness, and 0.6 mL of PBS/5% dimethyl sulfoxide (hereinafter abbreviated to DMSO) was added thereto. After carrying out thorough suspension by vortex, freezing and thawing were repeated for 5 times. Liposomes were prepared using a liposome preparation device (manufactured by Avestin Inc.) and two syringes and diluted to be 0.5 mM with PBS/5% DMSO just before the immobilization.
Each compound having a final concentration in PBS/5% DMSO of 50 μM was prepared by adding 38 μL of 1× PBS to 2 μL of 10 mM DMSO solution and further adding 360 μL of 1× PBS/5% DMSO and measured.
All of the following analyses were carried out using the Biacore S51 (registered trademark) system, and the measuring conditions were set up by Biacore S51 Control Software.
The measuring temperature was set to be 37° C., and PBS/5% DMSO (pH 7.4 or pH 6.0) was used as the buffer. Series S Sensor Chip L1 was used as the sensor chip. DOPA was immobilized on one of the measuring spots on the sensor surface, and the central spot was used as the reference.
Immobilization of the liposomes was carried out for about 3 minutes at a flow rate of 10 μL/minute, and then each compound was added thereto at a flow rate of 30 μL/minute to measure the interaction. The measuring conditions are as shown in the following.
Assay buffer: PBS/5% DMSO (pH 7.4 or pH 6.0)
Measuring temperature: 37° C.
Sensor chip: Series S Sensor Chip L1
Flow rate: 10 μL/minute at the time of liposome immobilization, 30 μL/minute at the time of interaction measurement
Regeneration: 20 mM CHAPS (3-[(3-cholamidopropyl)dimethylammonio]-1-propanesulfonate), an isopropanol/50 mM aqueous solution of sodium hydroxide=40/60 (volume ratio) mixed solution (60 seconds)
The data treatment was carried out in accordance with the method of Abdiche et al. (Analytical Biochemistry, 328, 233-243 (2004)) using Biacore S51 Evaluation Software.
After correcting infinitesimal error of the concentration of DMSO contained in the sample solution, the value of binding response (RU) obtained by subtracting the value of reference was divided by the sample molecular weight. Additionally, since the thus obtained value is proportional to the capturing amount of liposome, it was divided by the capturing amount at the time of the cycling and multiplied by 10^6 to be used as the correction value (correction value=1000000×RU (compound to be tested)/molecular weight (compound to be tested) RU (liposome)).
By adding propranolol, amiodarone, desipramine, imipramine and procaine as controls, it was confirmed that variation of the binding response is within about 10 to 15%.
Compounds having a binding response value after correction of 100 or more were judged positive.

T1 sequence (Q16539 whole entry): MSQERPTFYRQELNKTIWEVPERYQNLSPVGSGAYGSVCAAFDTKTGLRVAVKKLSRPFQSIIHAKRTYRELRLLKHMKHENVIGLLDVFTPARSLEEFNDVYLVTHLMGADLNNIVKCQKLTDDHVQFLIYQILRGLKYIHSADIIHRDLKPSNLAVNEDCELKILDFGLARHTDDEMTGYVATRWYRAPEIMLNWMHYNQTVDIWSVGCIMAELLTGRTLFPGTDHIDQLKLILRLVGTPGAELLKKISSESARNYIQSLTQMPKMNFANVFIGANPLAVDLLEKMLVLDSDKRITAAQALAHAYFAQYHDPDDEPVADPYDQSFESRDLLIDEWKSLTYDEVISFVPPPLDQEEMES

Row | IC50 [1] | Binding Level (RU) [2] | Structure (SMILES) | Judgment [2]
1 | 5.6 nM | 11.1 RU | C[C@@](O)(CO)c1nc(-c2ccc(F)cc2F)c(-c2ccc(=O)n(-c3c(F)cccc3F)c2)o1 [Example 211, 1-(2,6-difluorophenyl)-5-{4-(2,4-difluorophenyl)-2-[(1R)-1,2-dihydroxy-1-methylethyl]-1,3-oxazol-5-yl}-2(1H)-pyridinone] | Negative
2 | 3.3 nM | 8.7 RU | O=c1ccc(-c2oc(C(O)(CO)CO)nc2-c2ccc(F)cc2F)cn1-c1c(F)cccc1F [Example 223, 1-(2,6-difluorophenyl)-5-{4-(2,4-difluorophenyl)-2-[1,2-dihydroxy-1-(hydroxymethyl)ethyl]-1,3-oxazol-5-yl}-2(1H)-pyridinone] | Negative
3 | 4.4 nM | 19.6 RU | C[C@@](O)(CO)c1nc(-c2ccc(=O)n(-c3c(F)cccc3F)c2)c(-c2ccc(F)cc2F)o1 [Example 167 (1), 1-(2,6-difluorophenyl)-5-{5-(2,4-difluorophenyl)-2-[(1R)-1,2-dihydroxy-1-methylethyl]-1,3-oxazol-4-yl}-2(1H)-pyridinone] | Negative
4 | 3.5 nM | 18.3 RU | CC(C)(O)c1nc(-c2ccc(=O)n(-c3c(F)cccc3F)c2)c(-c2ccc(F)cc2F)o1 [Example 7 (21), 1-(2,6-difluorophenyl)-5-[5-(2,4-difluorophenyl)-2-(1-hydroxy-1-methylethyl)-1,3-oxazol-4-yl]-2(1H)-pyridinone] | Negative
5 | 3.8 nM | 22.2 RU | C[C@](O)(CO)c1nc(-c2ccc(=O)n(-c3c(F)cccc3F)c2)c(-c2ccc(F)cc2F)o1 [Example 167 (2), 1-(2,6-difluorophenyl)-5-{5-(2,4-difluorophenyl)-2-[(1S)-1,2-dihydroxy-1-methylethyl]-1,3-oxazol-4-yl}-2(1H)-pyridinone] | Negative
6 | 2.8 nM | 11.1 RU | O=c1ccc(-c2nc(C(O)(CO)CO)oc2-c2ccc(F)cc2F)cn1-c1c(F)cccc1F [Example 7 (39), 1-(2,6-difluorophenyl)-5-{5-(2,4-difluorophenyl)-2-[1,2-dihydroxy-1-(hydroxymethyl)ethyl]-1,3-oxazol-4-yl}-2(1H)-pyridinone] | Negative

The remaining lines, values behind:

Row | Structure (SMILES) | IC50 [1] | Binding Level (RU) [2] | Judgment [2]
7 | CC(C)(O)[C@H](O)c1nc(-c2ccc(=O)n(-c3c(F)cccc3F)c2)c(-c2ccc(F)cc2F)o1 [Example 227, 1-(2,6-difluorophenyl)-5-{5-(2,4-difluorophenyl)-2-[(1S)-1,2-dihydroxy-2-methylpropyl]-1,3-oxazol-4-yl}-2(1H)-pyridinone] | 3.9 nM | 22.5 RU | Negative
8 | CC(C)(O)[C@H](O)c1nc(-c2ccc(F)cc2F)c(-c2ccc(=O)n(-c3c(F)cccc3F)c2)o1 [Example 206, 1-(2,6-difluorophenyl)-5-{4-(2,4-difluorophenyl)-2-[(1S)-1,2-dihydroxy-2-methylpropyl]-1,3-oxazol-5-yl}-2(1H)-pyridinone] | 3.3 nM | 14.7 RU | Negative
9 | CC(C)(O)[C@@H](O)c1nc(-c2ccc(F)cc2F)c(-c2ccc(=O)n(-c3c(F)cccc3F)c2)o1 [Example 207, 1-(2,6-difluorophenyl)-5-{4-(2,4-difluorophenyl)-2-[(1R)-1,2-dihydroxy-2-methylpropyl]-1,3-oxazol-5-yl}-2(1H)-pyridinone] | 3.7 nM | 12.8 RU | Negative
10 | CC(C)(O)Cc1nc(-c2ccc(F)cc2F)c(-c2ccc(=O)n(-c3c(F)cccc3F)c2)o1 [Example 220, 1-(2,6-difluorophenyl)-5-[4-(2,4-difluorophenyl)-2-(2-hydroxy-2-methylpropyl)-1,3-oxazol-5-yl]-2(1H)-pyridinone] | 8 nM | 15.5 RU | Negative
11 | CC(C)(O)[C@@H](O)c1nc(-c2ccc(=O)n(-c3c(F)cccc3F)c2)c(-c2ccc(F)cc2F)o1 [Example 227 (1), 1-(2,6-difluorophenyl)-5-{5-(2,4-difluorophenyl)-2-[(1R)-1,2-dihydroxy-2-methylpropyl]-1,3-oxazol-4-yl}-2(1H)-pyridinone] | 4.8 nM | 21.0 RU | Negative

Reference: patent publication US7968572B2, “Nitrogen-containing heterocyclic compound and pharmaceutical application thereof” (Ono Pharmaceuticals Co., Ltd., priority 2005, dated 2011)
